Experimental data from patent US11584732B2, “Methods of treatment using 4-(3-cyanophenyl)-6-pyridinylpyrimidine mGlu5 modulators” (Heptares Therapeutics Limited, priority 2013, dated 2023).

Test system: CD-1 mice
Assay: In vivo efficacy test - marble burying
Parameters: species or system mouse
Conditions: male CD-1 mice, po, 30 min prior to test; at a dose of 10 and 30 mg/kg versus vehicle group

For `N#Cc1cc(Cl)cc(-c2cc(-c3ccc(F)cn3)ncn2)c1` [Example 17, 3-chloro-5-[6-(5-fluoropyridin-2-yl)pyrimidin-4-yl]benzonitrile], the “number of marbles buried” value was “statistically significant decrease”.
